Where two headings read alike, the source gives them in different places.
Experiments:
[1] = test system: IL-15 induced STAT5 phosphorylation in Human Whole Blood (total lymphocytes); assay: HWB IL-15 Induced STAT5 Phosphorylation Assay; assay type: cell-based; conditions: Lymphocyte, IL-15 stimulated, read-out: HWB-IL15-pSTAT5 IC50
Experimental: HWB IL-15 Induced STAT5 Phosphorylation Assay
After mixing and incubating for 45 minutes at 37° C., 5 μl D-PBS (unstimulated control) or 20× stocks of 5 μl human IL-15 (final concentration is 50 ng/ml) were added, and mixed three times. After incubating 15 minutes at 37° C., 1× Lyse/Fix Buffer (BD Phosflow 5× Lyse/Fix Buffer) was added to all wells at 1000 μl/well, then incubated for 20 minutes at 37° C. and spun 5 mins at 1200 rpm. […] Following incubating at 4° C. over night, all the samples were transferred to 96-well polypropylene U-bottom plate, and checked by flow cytometry gated on total lymphocytes.

[2] = test system: IL-15 induced P-STAT5 in human PBMC (total lymphocytes); assay: PBMC IL-15 Induced P-STAT5; assay type: cell-based; conditions: IL-15 stimulated, read-out: PBMC IL15-pSTAT5 IC50
Experimental: PBMC IL-15 Induced P-STAT5
Frozen human PBMC (200-250 million cells/vial) was thawed at 37° C. The cells were transferred to 10 mL warm medium in a 50-mL conical tube, and centrifuged at 1,200 RPM at room temperature for 5 min. The supernatant was aspirated. […] After adding 47 ml D-PBS (37° C.) to PBMC/FBS suspension, centrifuging at 1,200 RPM at room temperature for 5 min, and aspirating the supernatant, the cells were resuspended in 20 mL warm RPMI medium. Ninety μL of cell suspension were pipetted per well in a 96-well, deep-well, V-bottom plate, and the plate was incubated at 37° C. for 30 min. […] After adding 0.8 mL staining buffer per well, the plates were centrifuged at 1,200 RPM (Beckman GS-6R or Sorvall Legend) at room temperature for 5 min, and again the supernatant was aspirated using a 8-channel or 12-channel manifold. The plate was vortexed, and 0.35 mL 90% methanol/10% H2O (−20° C.) was added per well, and the plate incubated on ice for 20 min. After again adding 0.8 mL staining buffer per well, the plates were centrifuged at 1,200 RPM (Beckman GS-6R or Sorvall Legend) at room temperature for 5 min, and again the supernatant was aspirated using a 8-channel or 12-channel manifold, and then 0.8 mL Staining buffer was added per well. After once again adding 0.8 mL staining buffer per well, the plates were centrifuged at 1,200 RPM (Beckman GS-6R or Sorvall Legend) at room temperature for 5 min, and again the supernatant was aspirated using a 8-channel or 12-channel manifold. […] Samples of 250 μL/well were transferred to a 96-well U-bottom plate, and the FACS analysis was performed gating on total lymphocytes. Samples were analyzed using a BD Calibur™ or BD FACSCanto™ flow cytometer equipped with the BD High Throughput Sampler.

Structure (SMILES)	IC50 [1]	IC50 [2]	IC50 ([2]; Homo sapiens, PBMC)
C=CC(=O)N1CC[C@@H]2CCN(c3ncnc4[nH]ccc34)[C@@H]2C1 (single isomer, unassigned) [Example 8]	399 nM	–	–
C=CC(=O)N1C[C@H](Nc2ncnc3[nH]ccc23)CC[C@@H]1CC (single isomer, unassigned) [Example 9]	578 nM	–	35.5 nM
C=CC(=O)N1CCC[C@@H](Nc2ncnc3[nH]cc(Cl)c23)C1 [Example 3, (R)-1-(3-((5-chloro-7H-pyrrolo[2,3-d]pyrimidin-4-yl)amino)piperidin-1-yl)prop-2-en-1-one]	153 nM	–	35.2 nM
C=CC(=O)N1CC[C@H](F)[C@@H](Nc2ncnc3[nH]ccc23)C1 [Example 4, 1-((3S,4S)-3-((7H-pyrrolo[2,3-d]pyrimidin-4-yl)amino)-4-fluoropiperidin-1-yl)prop-2-en-1-one]	115 nM	–	19.7 nM
C=CC(=O)N1C[C@H](C#N)C[C@@H](Nc2ncnc3[nH]ccc23)C1 [Example 6, (3R,5R)-5-((7H-pyrrolo[2,3-d]pyrimidin-4-yl)amino)-1-acryloylpiperidine-3-carbonitrile]	870 nM	45.8 nM	–
C=CC(=O)N1C[C@H](F)C[C@@H](Nc2ncnc3[nH]ccc23)C1 [Example 10, 1-((3R,5R)-3-((7H-pyrrolo[2,3-d]pyrimidin-4-yl)amino)-5-fluoropiperidin-1-yl)prop-2-en-1-one]	461 nM	–	133 nM
C=CC(=O)N1CC[C@H](C)[C@@H](Nc2ncnc3[nH]ccc23)C1 [Example 11, 1-((3R,4S)-3-((7H-pyrrolo[2,3-d]pyrimidin-4-yl)amino)-4-methylpiperidin-1-yl)prop-2-en-1-one]	363 nM	–	97.9 nM
C=CC(=O)N1CCC[C@@H](Nc2ncnc3[nH]ccc23)C1 [Example 12, (R)-1-(3-((7H-Pyrrolo[2,3-d]pyrimidin-4-yl)amino)piperidin-1-yl)prop-2-en-1-one]	392 nM	–	107 nM
C=CC(=O)N1CCN(c2cnc3[nH]cc(C(=O)NC(C)C)c3n2)C[C@H]1C(C)C [Example 294, 2-[(3R)-4-acryloyl-3-(propan-2-yl)piperazin-1-yl]-N-(propan-2-yl)-5H-pyrrolo[2,3-b]pyrazine-7-carboxamide]	–	1000 nM	–
C=CC(=O)N1CCN(c2cnc3[nH]cc(C(=O)NC(C)C)c3n2)[C@@H](C)C1 [Example 297, 2-[(2S)-4-acryloyl-2-methylpiperazin-1-yl]-N-(propan-2-yl)-5H-pyrrolo[2,3-b]pyrazine-7-carboxamide]	–	752 nM	–
C=CC(=O)N1[C@H](C)CN(c2cnc3[nH]cc(C(=O)NC(C)C)c3n2)C[C@@H]1C [Example 306, 2-[(3R,5S)-4-acryloyl-3,5-dimethylpiperazin-1-yl]-N-(propan-2-yl)-5H-pyrrolo[2,3-b]pyrazine-7-carboxamide]	–	1090 nM	–
C=CC(=O)N1CCN(c2cnc3[nH]cc(C(=O)NC(C)C)c3n2)[C@H](C)C1 [Example 307, 2-[(2R)-4-acryloyl-2-methylpiperazin-1-yl]-N-(propan-2-yl)-5H-pyrrolo[2,3-b]pyrazine-7-carboxamide]	–	457 nM	–
C=CC(=O)N1CC2CCC1CN2c1cnc2[nH]cc(C(=O)NC(C)C)c2n1 (centres unmarked) [Example 308, 2-(5-acryloyl-2,5-diazabicyclo[2.2.2]oct-2-yl)-N-(propan-2-yl)-5H-pyrrolo[2,3-b]pyrazine-7-carboxamide]	–	2240 nM	–
C=CC(=O)N1CCN(c2cnc3[nH]cc(C(=O)NC(C)C)c3n2)C2(CC2)C1 [Example 313, 2-(7-acryloyl-4,7-diazaspiro[2.5]oct-4-yl)-N-(propan-2-yl)-5H-pyrrolo[2,3-b]pyrazine-7-carboxamide]	–	706 nM	–
C=CC(=O)N1CCN(c2cnc3[nH]cc(C(=O)NC(C)C)c3n2)[C@H](CC)C1 [Example 321, 2-[(2R)-4-acryloyl-2-ethylpiperazin-1-yl]-N-(propan-2-yl)-5H-pyrrolo[2,3-b]pyrazine-7-carboxamide]	–	415 nM	–
C=CC(=O)N1CCN(c2cnc3[nH]cc(C(=O)NC(C)C)c3n2)[C@@H](CC)C1 [Example 325, 2-[(2S)-4-acryloyl-2-ethylpiperazin-1-yl]-N-(propan-2-yl)-5H-pyrrolo[2,3-b]pyrazine-7-carboxamide]	–	1560 nM	–
C=CC(=O)N1C[C@@H](C)N(c2cnc3[nH]cc(C(=O)NC(C)C)c3n2)[C@@H](C)C1 [Example 328, 2-[(2R,6S)-4-acryloyl-2,6-dimethylpiperazin-1-yl]-N-(propan-2-yl)-5H-pyrrolo[2,3-b]pyrazine-7-carboxamide]	–	891 nM	–
C=CC(=O)N1CCC(Oc2cnc3[nH]cc(C(=O)NC(C)(C)C)c3n2)CC1 [Example 338, 2-((1-Acryloylpiperidin-4-yl)oxy)-N-(tert-butyl)-5H-pyrrolo[2,3-b]pyrazine-7-carboxamide]	–	480 nM	–

Now from value to molecule, other results behind:

IC50 [1]	Structure (SMILES)	IC50 [2]	IC50 ([2]; Homo sapiens, PBMC)
712 nM	C=CC(=O)N1C[C@@H](C)C[C@@H](Nc2ncnc3[nH]ccc23)C1 (racemic) [Example 22, rac-cis-1-((3R,5S)-3-((7H-Pyrrolo[2,3-d]pyrimidin-4-yl)amino)-5-methylpiperidin-1-yl)prop-2-en-1-one]	216 nM	–
926 nM	C=CC(=O)N1CC[C@H](C)[C@@H](Nc2ncnc3[nH]ccc23)C1 (racemic) [Example 50, 1-[(3R,4S)-4-methyl-3-(7H-pyrrolo[2,3-d]pyrimidin-4-ylamino)piperidin-1-yl]prop-2-en-1-one]	–	202 nM
797 nM	C=CC(=O)N1C[C@H](Nc2ncnc3[nH]ccc23)CC[C@@H]1C (racemic) [Example 129, rac-1-[(2S,5R)-2-Methyl-5-(7H-pyrrolo[2,3-d]pyrimidin-4-ylamino)piperidin-1-yl]prop-2-en-1-one]	114 nM	–
538 nM	C=CC(=O)N1C[C@@H](C)C[C@@H](Nc2ncnc3[nH]ccc23)C1 (single isomer, unassigned) [Example 14]	114 nM	–
1870 nM	C=CC(=O)N1C[C@H](Nc2ncnc3[nH]ccc23)CCC1(C)C (single isomer, unassigned) [Example 61]	–	1030 nM
549 nM	C=CC(=O)N1C[C@H](Nc2ncnc3[nH]cc(CCOC)c23)CC[C@@H]1C [Example 13, 1-((2S,5R)-5-((5-(2-Methoxyethyl)-7H-pyrrolo[2,3-d]pyrimidin-4-yl)amino)-2-methylpiperidin-1-yl)prop-2-en-1-one]	114 nM	–
400 nM	C=CC(=O)N1C[C@@H](F)C[C@@H](Nc2ncnc3[nH]ccc23)C1 [Example 15, 1-((3R,5S)-3-((7H-Pyrrolo[2,3-d]pyrimidin-4-yl)amino)-5-fluoropiperidin-1-yl)prop-2-en-1-one]	–	128 nM
210 nM	C=CC(=O)N1C[C@@H](O)C[C@@H](Nc2ncnc3[nH]ccc23)C1 [Example 17, 1-((3R,5S)-3-(7H-Pyrrolo[2,3-d]pyrimidin-4-ylamino)-5-hydroxypiperidin-1-yl)prop-2-en-1-one]	–	71.8 nM
555 nM	C=CC(=O)N1C[C@H](Nc2ncnc3[nH]cc(Cl)c23)CC[C@@H]1C [Example 18, 1-((2S,5R)-5-((5-Chloro-7H-pyrrolo[2,3-d]pyrimidin-4-yl)amino)-2-methylpiperidin-1-yl)prop-2-en-1-one]	31.5 nM	–
505 nM	C=CC(=O)N1C[C@H](Nc2ncnc3[nH]ccc23)C[C@H](OC)C1 [Example 19, 1-((3R,5S)-3-((7H-Pyrrolo[2,3-d]pyrimidin-4-yl)amino)-5-methoxypiperidin-1-yl)prop-2-en-1-one]	139 nM	–
819 nM	C=CC(=O)N1CCC[C@@H](Nc2ncnc3[nH]cc(F)c23)C1 [Example 42, 1-{(3R)-3-[(5-fluoro-7H-pyrrolo[2,3-d]pyrimidin-4-yl)amino]piperidin-1-yl}prop-2-en-1-one]	–	293 nM
463 nM	C=CC(=O)N1CCC[C@@H](Nc2ncnc3[nH]cc(C)c23)C1 [Example 43, 1-{(3R)-3-[(5-methyl-7H-pyrrolo[2,3-d]pyrimidin-4-yl)amino]piperidin-1-yl}prop-2-en-1-one]	116 nM	–
235 nM	C=CC(=O)N1CC(Nc2ncnc3[nH]ccc23)CCC1CO (centres unmarked) [Example 52, 1-[2-(Hydroxymethyl)-5-(7H-pyrrolo[2,3-d]pyrimidin-4-ylamino)piperidin-1-yl]prop-2-en-1-one]	–	–
